# Tested on: 5-HT1A receptor
# Assay: not given
# Settings: (-)-isomer versus dextrorotary isomer; cited from earlier work
row,Compound,binds times as much as the dextrorotary isomer at the 5-HT1A receptor site
1,"O=C1CC2(CCCC2)CC(=O)N1CCCCNCC1COc2ccccc2O1 (single isomer, unassigned; (-)) [(-)-MDL 72832, 8-[4-(1,4-benzodioxan-2-ylmethylamino)butyl]-8-azaspiro[4.5]decane-7,9-dione]",32 times

# Tested on: dopa accumulation
# Assay: Inhibition of dopa accumulation in GBL-treated rats (effect on dopamine synthesis, Walters and Roth)
# Type: in vivo, rat (male, Sprague-Dawley)
# Settings: sc, limbic (L) brain tissue, rat, read-out: Dopa Accumulation (% inhib. @ 10 mg/kg, sc)
# Protocol: The effect of the compounds of the invention on the synthesis of dopamine was established by the method of Walters and Roth, Naunyn-Schmiedeberg's Arch. Pharmacol. 296:5-14, 1976, in which rats (male, Sprague-Dawley, Charles River, 200-350 g) were administered vehicle or test drug ten minutes prior to the administration of gamma butyrolactone (GBL; 750 mg/kg, ip to inhibit dopaminergic impulse flow) and 20 minutes prior to NSD-1015 (100 mg/kg, ip to prevent the conversion of dopa to dopamine). Thirty minutes after NSD-1015 all rats were decapitated and the nucleus accumbens and the striatum were removed for analysis. Following perchloric acid extraction of the tissue, the extracts were placed over alumina columns to collect and concentrate dopa and other catechols. This eluate was then subjected to HPLC analysis using electrochemical detection to quantify the levels of dopa present. Dopamine autoreceptor agonists, under the conditions used above, inhibit dopa accumulation.
row,Compound,inhibition at 10 mg/kg
1,"O=c1ccoc2cc(OCCCNC[C@H]3COc4cc5c(cc4O3)OCO5)ccc12 [Example 2, (S)-7-[3-[[(6,7-Dihydro-1,3-dioxolo[4,5-g][1,4]benzodioxin-6-yl)methyl]amino]propoxy]chromen-4-one]",60.3%

# Target: T1, dopamine D2 receptor (Rattus norvegicus, UniProt P61169)
# T1 construct: homogenized rat striatal brain tissue; from tissue; host or cells: rat striatal brain tissue homogenate
# Assay: Affinity for dopamine D2 receptor (3H-quinpirole, homogenized rat striatal brain tissue)
# Type: binding
# Settings: not given
# Protocol: Affinity for the dopamine D2 receptor was established by a modification of the standard experimental test procedure of Seemen and Schaus, European Journal of Pharmacology 203: 105-109, 1991, wherein homogenized rat striatal brain tissue is incubated with ^3 H-quinpirole and various concentrations of test compound, filtered and washed and counted in a Betaplate scintillation counter.
# T1 sequence (P61169 whole entry): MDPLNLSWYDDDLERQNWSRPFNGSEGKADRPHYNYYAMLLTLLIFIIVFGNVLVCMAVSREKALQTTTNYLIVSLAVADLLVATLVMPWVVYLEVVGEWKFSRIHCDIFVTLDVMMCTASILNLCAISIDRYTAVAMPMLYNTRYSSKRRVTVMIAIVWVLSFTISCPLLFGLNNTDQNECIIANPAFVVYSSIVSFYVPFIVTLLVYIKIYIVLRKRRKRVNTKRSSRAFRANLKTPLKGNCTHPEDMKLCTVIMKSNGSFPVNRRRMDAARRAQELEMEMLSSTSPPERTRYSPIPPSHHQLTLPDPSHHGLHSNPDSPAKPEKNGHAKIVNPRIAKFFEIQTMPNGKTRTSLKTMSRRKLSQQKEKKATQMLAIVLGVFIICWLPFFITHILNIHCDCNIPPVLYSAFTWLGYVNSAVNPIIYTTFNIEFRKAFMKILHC
row,Compound,inhibition at 0.1 µM
1,"O=c1ccoc2cc(OCCCNCC3COc4cc5c(cc4O3)OCO5)ccc12 (stereo not drawn) [Example 1, 7-[3-[[(6,7-Dihydro-1,3-dioxolo[4,5-g][1,4]benzodioxin-6-yl)methyl]amino]propoxy]chromen-4-one]",65%
2,"O=c1ccoc2cc(OCCCNC[C@H]3COc4cc5c(cc4O3)OCO5)ccc12 [Example 2, (S)-7-[3-[[(6,7-Dihydro-1,3-dioxolo[4,5-g][1,4]benzodioxin-6-yl)methyl]amino]propoxy]chromen-4-one]",73%
3,"O=C1CCOc2cc(OCCCNCC3COc4cc5c(cc4O3)OCO5)ccc21 (stereo not drawn) [Example 4, 7-[3-[[(6,7-Dihydro-1,3-dioxolo[4,5-g][1,4]benzodioxin-6-yl)methyl]amino]propoxy]-chroman-4-one]",24%
4,"O=c1ccoc2ccc(OCCCNCC3COc4cc5c(cc4O3)OCO5)cc12 (stereo not drawn) [Example 5, 6-[3-[[(6,7-Dihydro-1,3-dioxolo[4,5-g][1,4]benzodioxin-6-yl)methyl]amino]propoxy]-chromen-4-one]",39%
5,"c1cc2c(cc1OCCCNCC1COc3cc4c(cc3O1)OCO4)CCCO2 (stereo not drawn) [Example 6, N-[3-(Chroman-6-yloxy)-propyl]-6,7-dihydro-1,3-dioxolo[4,5-g][1,4]benzodioxin-6-methanamine]",23%
6,"c1cc2c(cc1OCCCNCC1COc3cc4c(cc3O1)OCO4)OCCC2 (stereo not drawn) [Example 7, N-[3-(Chroman-7-yloxy)-propyl]-6,7-dihydro-1,3-dioxolo[4,5-g][1,4]benzodioxin-6-methanamine]",24%
7,"COc1ccc2c(c1)OC(CNCCCOc1ccc3c(=O)ccoc3c1)CO2 (stereo not drawn) [Example 8, 7-[3-[(7-Methoxy-2,3-dihydro-benzo[1,4]dioxin-2-ylmethyl)amino]propoxy]chromen-4-one]",49%
8,"O=c1ccoc2cc(OCCCNCC3COc4ccc(O)cc4O3)ccc12 (stereo not drawn) [Example 9, 7-[3-[(7-Hydroxy-2,3-dihydro-benzo[1,4]dioxin-2-ylmethyl)amino]propoxy]chromen-4-one]",100%
9,"O=C1COc2cc(OCCCNCC3COc4cc5c(cc4O3)OCO5)ccc21 (stereo not drawn) [Example 10, 6-[3-[(6,7-Dihydro-1,3-dioxolo[4,5-g][1,4]benzodioxin-6-ylmethyl)amino]propoxy)-benzofuran-3-one]",43%

# Tested on: mouse locomotor activity
# Assay: Reduction of mouse locomotor activity (hypolocomotion)
# Type: in vivo, mouse (male, CF-1)
# Settings: 20 min, ip, horizontal activity counts 10 to 20 minutes after dosing
# Protocol: The antipsychotic activity of the compounds of the invention was further established by a determination of the compounds' ability to reduce mouse locomotor activity according to the method of Martin and Bendensky, J. Pharmacol. Exp. Therap. 229: 706-711, 1984, in which mice (male, CF-1, Charles River, 20-30 g) were injected with vehicle or various doses of each drug and locomotor activity was measured for 30 minutes using automated infrared activity monitors (Omnitech-8×8 inch open field) located in a darkened room. ED50 's were calculated from the horizontal activity counts collected from 10 to 20 minutes after dosing using a nonlinear regression analysis with inverse prediction.
row,Compound,ED50
1,"O=c1ccoc2cc(OCCCNC[C@H]3COc4cc5c(cc4O3)OCO5)ccc12 [Example 2, (S)-7-[3-[[(6,7-Dihydro-1,3-dioxolo[4,5-g][1,4]benzodioxin-6-yl)methyl]amino]propoxy]chromen-4-one]",2.74 mg/kg

# From patent US5245051A, “Antipsychotic chroman derivatives of benzodioxanmethylamine” (American Home Products Corporation, priority 1992, dated 1993)
